Measured values reported in patent publication US6010851A, “Method for producing nucleoside-5'-phosphate ester” (Ajinomoto Co., Inc., priority 1995, dated 2000).
Where two headings read alike, the source gives them in different places.

Legend:
[1] = target: T1, acid phosphatase sample derived from Morganella morganii (Morganella morganii, UniProt P28581); test: Production of 5'-inosinic acid from various phosphate group donors by acid phosphatase sample; type: biochemical, Morganella morganii NCIMB 10466; conditions: inosine 2 g/dl, phosphate group donor 10 g/dl, enzyme 50 units/dl, pH 4.0, 30° C., 3 hours
T1 construct: homo-oligomer; signal peptide removed
Procedure: (§1) The reaction mixture was incubated at 30° C. for 3 hours while maintaining pH at 4.0.

[2] = target: T2, acid phosphatase sample derived from Escherichia blattae (Shimwellia blattae, UniProt I2BB71); test: as above; type: biochemical, Escherichia blattae JCM 1650; conditions: inosine 2 g/dl, phosphate group donor 10 g/dl, enzyme 50 units/dl, pH 4.0, 35° C., 3 hours
T2 construct: homo-oligomer; signal peptide removed
Procedure: The reaction miture was incubated at 35° C. for 3 hours while maintaining pH at 4.0.

[3] = test system: Escherichia coli JM109/pEPI330; test: Production of 5'-inosinic acid from various phosphate group donors by microbial cells of the mutant strain; type: cell-based; conditions: inosine 6 g/dl, phosphate group donor 12 g/dl, cells 200 mg/dl dry weight, pH 4.0, 35° C., 32 hours
Text: (§2) 5'-Inosinic acid was efficiently produced and accumulated by using any of the phosphate group donors. However, the accumulated amount of 5'-inosinic acid was the highest when polyphosphoric acid was used as the phosphate group donor.

[4] = test system: Escherichia coli JM109/pMPI530; test: as above; type: cell-based; conditions: inosine 6 g/dl, phosphate group donor 10 g/dl, cells 100 mg/dl dry weight, buffer pH 4.5, pH maintained at 4.0, 30° C., 22 hours
Text: as §2

[5] = target: T3, acid phosphatase derived from Morganella morganii (Morganella morganii, UniProt P28581); type: biochemical
T3 construct: homo-oligomer of about 25 kDa subunits; 20-residue signal peptide removed
T3 sequence (P28581 21-249): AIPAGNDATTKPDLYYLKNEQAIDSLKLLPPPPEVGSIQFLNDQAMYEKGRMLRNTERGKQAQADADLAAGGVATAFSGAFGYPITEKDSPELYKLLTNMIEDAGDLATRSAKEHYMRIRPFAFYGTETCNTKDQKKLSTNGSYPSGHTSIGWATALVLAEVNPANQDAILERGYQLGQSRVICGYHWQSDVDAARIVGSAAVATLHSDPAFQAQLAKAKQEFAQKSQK

[6] = target: T4, acid phosphatase derived from Escherichia blattae (Shimwellia blattae, UniProt I2BB71); type: biochemical, Escherichia blattae JCM 1650
T4 construct: homo-oligomer; 18-residue signal peptide removed
T4 sequence (I2BB71 19-249): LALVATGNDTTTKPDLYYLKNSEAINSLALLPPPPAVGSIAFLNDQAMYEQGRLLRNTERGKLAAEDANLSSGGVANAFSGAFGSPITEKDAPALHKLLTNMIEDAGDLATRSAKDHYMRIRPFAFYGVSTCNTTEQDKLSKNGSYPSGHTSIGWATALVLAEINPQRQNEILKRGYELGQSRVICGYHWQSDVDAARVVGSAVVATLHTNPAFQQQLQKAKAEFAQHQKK

[7] = target: T1, acid phosphatase sample derived from Morganella morganii; test: Phosphorylation reaction of various nucleosides by acid phosphatase sample; type: biochemical, Morganella morganii NCIMB 10466; conditions: sodium pyrophosphate 10 g/dl, nucleoside 2 g/dl, enzyme 50 units/dl, pH 4.0, 30° C., 3 hours
Procedure: (§3) Incidentally, in the reaction to produce nucleoside-5'-phosphate esters using nucleosides other than inosine as raw materials, the nucleosides as raw materials and produced nucleoside-5'-phosphate esters were analyzed by HPLC as described above.
Sodium pyrophosphate (10 g/dl) and inosine (2 g/dl) were dissolved in sodium acetate buffers each having pH of 5.5, 5.0, 4.5, 4.0, and 3.5, to which the enzyme sample described above was added so that a concentration of 50 units/dl was obtained. […] Produced inosinic acid contained only 5'-inosinic acid. By-production of 2'-inosinic acid and 3'-inosinic acid was not observed at all. The velocity of 5'-inosinic acid production was maximum at pH 5.0. However, the maximum accumulated amount of 5'-inosinic acid was higher at lower pH. The reaction condition at pH 4.0 was most efficient for production of 5'-inosinic acid, in which 5'-inosinic acid was produced and accumulated in an amount of 2.60 g/dl by performing the reaction for 3 hours.
as §1

[8] = target: T2, acid phosphatase sample derived from Escherichia blattae; test: as above; type: biochemical, Escherichia blattae JCM 1650; conditions: sodium pyrophosphate 15 g/dl, enzyme 50 units/dl, 3 hours; for Produced amount of nucleoside-5'-ester: nucleoside 3 g/dl, pH 4.0, 35° C.
Procedure: as §3
Sodium pyrophosphate (15 g/dl) and inosine (3 g/dl) were dissolved in sodium acetate buffers each having pH of 5.5, 5.0, 4.5, 4.0, and 3.5, to which the enzyme sample described above was added so that a concentration of 50 units/dl was obtained. […] Produced inosinic acid contained only 5'-inosinic acid. By-production of 2'-inosinic acid and 3'-inosinic acid was not observed at all. The velocity of 5'-inosinic acid production was maximum at pH 5.0. However, the maximum accumulated amount of 5'-inosinic acid was higher at lower pH. The reaction condition at pH 4.0 was most efficient for production of 5'-inosinic acid. 5'-Inosinic acid was produced and accumulated in an amount of 1.56 g/dl by performing the reaction at 30° C. at pH 4.0 for 3 hours.
The reaction mixture was incubated at 35° C. for 3 hours while maintaining pH at 4.0.

[9] = test system: Escherichia coli JM109/pEPI330; test: Production of various nucleoside-5'-phosphate esters by microbial cells of the mutant strain; type: cell-based; conditions: sodium pyrophosphate 12 g/dl, nucleoside 6 g/dl, cells 200 mg/dl dry weight, pH 4.0, 35° C., 32 hours
Text: (§4) Produced nucleotide contained only nucleoside-5'-phosphate ester. By-production of nucleoside-2'-phosphate ester and nucleoside-3'-phosphate ester was not observed at all.

[10] = test system: Escherichia coli JM109/pMPI530; test: as above; type: cell-based; conditions: sodium pyrophosphate 12 g/dl, nucleoside 6 g/dl, cells 100 mg/dl dry weight, pH 4.0, 30° C., 22 hours
Text: as §4

[11] = Phosphomonoesterase activity (inosine produced by hydrolysis of 5'-inosinic acid); type: biochemical; conditions: purified Morganella morganii enzyme
Procedure: The phosphomonoesterase activity was measured under the following condition using 5'-inosinic acid as a substrate. The reaction was performed at 30° C. for 10 minutes in a reaction solution (1 ml) containing 10 μmol/ml of 5'-inosinic acid, 100 μmol/ml of MES/NaOH buffer (pH 6.0), and an enzyme. The reaction was stopped by adding 200 μl of 2 N hydrochloric acid. After that, precipitates were removed by centrifugation. Then, inosine produced by the hydrolytic reaction was quantitatively measured. An amount of enzyme to produce 1 μmol of inosine per 1 minute under this standard reaction condition was defined as 1 unit.
Inosine and 5'-inosinic acid were analyzed under the following condition by means of high-performance liquid chromatography (HPLC).

[12] = Properties of the purified acid phosphatase derived from Morganella morganii; set-up: species or system Morganella morganii NCIMB 10466
Procedure: A nutrient medium (pH 7.0, 50 ml) containing 1 g/dl of peptone, 0.5 g/dl of yeast extract, and 1 g/dl of sodium chloride was poured into Sakaguchi flasks (500 ml), which was sterilized at 120° C. for 20 minutes. A slant culture of Morganella morganii NCIMB 10466 was inoculated to each of the flasks once with a platinum loop, which was cultivated at 30° C. for 16 hours with shaking. Microbial cells (about 3,000 g), which were harvested from a culture by centrifugation, were suspended in 100 mM potassium phosphate buffer (1 L, pH 7.0). A ultrasonic treatment was performed at 4° C. for 20 minutes to disrupt the microbial cells. The treated suspension was centrifuged to remove its insoluble fraction. Thus a cell-free extract was prepared.
The purified enzyme had the following properties.

[13] = purified Escherichia blattae enzyme
[14] = purified Morganella morganii enzyme

**Q.** With sodium polyphosphate as the molecule, how does the “Produced 5'-inosinic acid” value [1] read?
**A.** 2.72 g/dL

**Q.** And the “Produced 5'-inosinic acid” value [2]?
**A.** 1.79 g/dL

**Q.** What about the “Produced 5'-inosinic acid” value [3] of the same molecule?
**A.** 8.84 g/dL

**Q.** What about the “Produced 5'-inosinic acid” value [4] of the same molecule?
**A.** 11.45 g/dL

**Q.** With `O=C(O)CI` [iodoacetic acid] as the molecule, how does the “Effect of the addition of metal ion and inhibitor on enzyme activity” value [5] read?
**A.** inhibited

**Q.** And the “Effect of the addition of metal ion and inhibitor on enzyme activity” value [6]?
**A.** inhibited

**Q.** With `[Fe+2]` [Fe^2+] as the molecule, how does the “Effect of the addition of metal ion and inhibitor on enzyme activity” value [6, 13] read?
**A.** inhibited

**Q.** For `NC(=O)OP(=O)([O-])[O-].[Na+].[Na+]` [Disodium carbamyl phosphate, disodium carbamyl phosphate], which “Produced 5'-inosinic acid” value [1] is on record?
**A.** 2.54 g/dL

**Q.** What about the “Produced 5'-inosinic acid” value [2] of the same molecule?
**A.** 1.53 g/dL

**Q.** What about the “Produced 5'-inosinic acid” value [3] of the same molecule?
**A.** 7.73 g/dL

**Q.** What about the “Produced 5'-inosinic acid” value [4] of the same molecule?
**A.** 9.89 g/dL

**Q.** With `O=P(O)(O)OP(=O)(O)OP(=O)(O)O` [Sodium tripolyphosphate, sodium tripolyphosphate] as the molecule, how does the “Produced 5'-inosinic acid” value [1] read?
**A.** 2.10 g/dL

**Q.** What about the “Produced 5'-inosinic acid” value [2] of the same molecule?
**A.** 1.20 g/dL

**Q.** What about the “Produced 5'-inosinic acid” value [3] of the same molecule?
**A.** 5.96 g/dL

**Q.** What about the “Produced 5'-inosinic acid” value [4] of the same molecule?
**A.** 8.93 g/dL

**Q.** Which “Effect of the addition of metal ion and inhibitor on enzyme activity” value [5, 14] does the source give for `[Pb+2]` [Pb^2+] here?
**A.** inhibited

**Q.** And the “Effect of the addition of metal ion and inhibitor on enzyme activity” value [6, 13]?
**A.** inhibited

**Q.** Which results are given for `O=P([O-])([O-])Oc1ccccc1.[Na+].[Na+]` [Disodium phenylphosphate, disodium phenylphosphate]?
**A.** Produced 5'-inosinic acid [1]: 2.33 g/dL; Produced 5'-inosinic acid [2]: 1.50 g/dL; Produced 5'-inosinic acid [3]: 7.60 g/dL; Produced 5'-inosinic acid [4]: 9.62 g/dL

**Q.** With `O=c1ccn([C@@H]2O[C@H](CO)[C@@H](O)[C@H]2O)c(=O)[nH]1` [Uridine, uridine] as the molecule, how does the “Produced amount of nucleoside-5'-ester” value [7] read?
**A.** 1.30 g/dL

**Q.** What about the “Produced amount of nucleoside-5'-ester” value [8] of the same molecule?
**A.** 1.87 g/dL

**Q.** What about the “Produced amount of nucleoside-5'-phosphate ester” value [9] of the same molecule?
**A.** 8.93 g/dL

**Q.** What about the “Produced amount of nucleoside-5'-phosphate ester” value [10] of the same molecule?
**A.** 11.90 g/dL

**Q.** What does the source list for `Nc1ccn([C@@H]2O[C@H](CO)[C@@H](O)[C@H]2O)c(=O)n1` [Cytidine, cytidine]?
**A.** Produced amount of nucleoside-5'-ester [7]: 0.98 g/dL; Produced amount of nucleoside-5'-ester [8]: 1.22 g/dL; Produced amount of nucleoside-5'-phosphate ester [9]: 6.60 g/dL; Produced amount of nucleoside-5'-phosphate ester [10]: 7.82 g/dL

**Q.** Which results are given for `OC[C@H]1O[C@@H](n2cnc3c(O)ncnc32)[C@H](O)[C@@H]1O` [Inosine, inosine]?
**A.** Produced amount of nucleoside-5'-ester [7]: 2.60 g/dL; 5'-inosinic acid produced and accumulated ([8]; inosine 3 g/dl, pH 4.0, 30° C.): 1.56 g/dL; Produced amount of nucleoside-5'-ester [8]: 1.56 g/dL; Produced amount of nucleoside-5'-phosphate ester [9]: 7.45 g/dL; Produced amount of nucleoside-5'-phosphate ester [10]: 10.01 g/dL

**Q.** With `[Hg+2]` [Hg^2+] as the molecule, how does the “Effect of the addition of metal ion and inhibitor on enzyme activity” value [5, 14] read?
**A.** inhibited

**Q.** And the “Effect of the addition of metal ion and inhibitor on enzyme activity” value [6, 13]?
**A.** inhibited

**Q.** With `[Cu+2]` [Cu^2+] as the molecule, how does the “Effect of the addition of metal ion and inhibitor on enzyme activity” value [5, 14] read?
**A.** inhibited

**Q.** What about the “Effect of the addition of metal ion and inhibitor on enzyme activity” value [6, 13] of the same molecule?
**A.** inhibited

**Q.** With `[Ag+2]` [Ag^2+] as the molecule, how does the “Effect of the addition of metal ion and inhibitor on enzyme activity” value [5, 14] read?
**A.** inhibited

**Q.** What about the “Effect of the addition of metal ion and inhibitor on enzyme activity” value [6, 13] of the same molecule?
**A.** inhibited

**Q.** With `Nc1nc2c(ncn2[C@@H]2O[C@H](CO)[C@@H](O)[C@H]2O)c(=O)[nH]1` [Guanosine, guanosine] as the molecule, how does the “Produced amount of nucleoside-5'-ester” value [7] read?
**A.** 1.90 g/dL

**Q.** And the “Produced amount of nucleoside-5'-ester” value [8]?
**A.** 1.05 g/dL

**Q.** What about the “Produced amount of nucleoside-5'-phosphate ester” value [9] of the same molecule?
**A.** 4.77 g/dL

**Q.** And the “Produced amount of nucleoside-5'-phosphate ester” value [10]?
**A.** 6.72 g/dL

B1: acid phosphatase derived from Morganella morganii: enzyme purified from cell-free extract of Morganella morganii NCIMB 10466; mature protein SEQ ID NO: 4 (protein)
chain: T3 sequence (P28581 21-249)
**Q.** Which “phosphate ester hydrolytic activity (phosphomonoestrase activity) relative to transphosphorylation activity” value [11] does the source give for B1 here?
**A.** not less than 20 times

**Q.** What about the Optimum temperature [12] of the same molecule?
**A.** about 35 °C

**Q.** And the “Optimum pH” value ([12]; phosphate ester hydrolytic reaction)?
**A.** 6.5

**Q.** And the “Optimum pH” value ([12]; transphosphorylation reaction)?
**A.** 5.2

**Q.** What about the Temperature stability ([12]; treatment at pH 7.0 for 30 minutes) of the same molecule?
**A.** up to 30 °C
